Results reported in BindingDB's records for doi:10.1016/j.bmc.2018.04.029 (Shenyang Pharmaceutical University, 2018).

Test: Inhibition of Hepatitis C virus genotype 1b NS5B RNA-dependent-RNA polymerase assessed as reduction in viral replication after 72 hrs by indirect immunofluorescence assay

| SMILES | EC50 [nM] |
| --- | --- |
| COc1cccc(-n2cc(Cn3ccc4nc(-c5ccccc5F)nc-4c3)nn2)c1 | 13 |
| Fc1ccc(-n2cc(Cn3ccc4nc(-c5ccccc5F)nc-4c3)nn2)cc1 | 35 |
| Fc1ccccc1-c1nc2ccn(Cc3cn(-c4ccccc4)nn3)cc-2n1 | 23 |
| Cc1cc(C)n2nc(Cn3cc(Cn4ccc5nc(-c6ccccc6F)nc-5c4)nn3)nc2n1 | 84 |
| Fc1ccccc1-c1nc2ccn(Cc3cn(Cc4cn5cccnc5n4)nn3)cc-2n1 | 21 |
| O=c1ccccn1Cc1ccc(-n2cc(Cn3ccc4nc(-c5ccccc5F)nc-4c3)nn2)cc1 | 93 |
| Fc1ccccc1-c1nc2ccn(Cc3cn(-c4ccccc4F)nn3)cc-2n1 | 52 |
| CS(=O)(=O)Nc1ccc(-n2cc(Cn3ccc4nc(-c5ccccc5F)nc-4c3)nn2)cc1 | 18 |
| COc1ccc(-n2cc(Cn3ccc4nc(-c5ccccc5F)nc-4c3)nn2)cc1 | 1.2 |
| Cc1cc(C)n2cc(Cn3cc(Cn4ccc5nc(-c6ccccc6F)nc-5c4)nn3)nc2n1 | 37 |
| O=c1ncccn1Cc1ccc(-n2cc(Cn3ccc4nc(-c5ccccc5F)nc-4c3)nn2)cc1 | 96 |
